We go through 8 compounds from patent US10150776B2, “Harringtonines salts in the crystalline state and their use for the purification of the corresponding drug substance” (priority 2013, dated 2018).

One may read the solubility as the concentration that dissolves in the medium under given conditions.

Where two headings read alike, the source gives them in different places. Where only a bound is given, the exact number is not on record here.

The subject of one series is cancer. On the set-up: key: cytotoxic: CYTOTOXICITY is toxicity to tumor cells in culture; anticancer: ANTINEOPLASTIC or ANTICANCER iare the reserved terms for reportied clinical trials data. The conditions noted are these: in cancer area; terms defined in table footnote; cited from earlier work.
Series [1] is described as follows: Solubility determination in water, semi-quantitative. It is filed as physicochemical. The method, then:
Solubility in water at 25° C. was measured semi-quantitatively at a threshold of 5 g per 100 mL. All the homoharringtonine salts described in the below examples, unless otherwise stated, are soluble at this threshold. Homoharringtonine base itself is soluble at a threshold lower than 0.1 g per mL

As for `COC(=O)C[C@](O)(CCC(C)(C)O)C(=O)O[C@@H]1C(OC)=C[C@]23CCCN2CCc2cc4c(cc2[C@H]13)OCO4` [Example 5a, harringtonine], the Activity result in the series on cancer is listed as “anticancer”.
Turning to `COC(=O)[C@@H](O)[C@](O)(CCC(C)C)C(=O)O[C@@H]1C(OC)=C[C@]23CCCN2CCc2cc4c(cc2[C@H]13)OCO4` [Example 5f, isoharringtonine], the Activity result with cancer is reported as “none”.
For the compound `COC(=O)C[C@](O)(CCCC(C)(C)O)C(=O)O[C@@H]1C(OC)=C[C@]23CCCN2CCc2cc4c(cc2[C@H]13)OCO4` [Homoharringtonine base, homoharringtonine], in series [1] (25° C., semi-quantitative, read-out: Solubility in water (threshold)), the solubility was under 100 mg/mL. The Activity entry with cancer is reported as “anticancer”.
neoharringtonine [Example 5g]: in the series on cancer, the Activity result is “cytotoxic”.
Consider `COC(=O)CC(O)(CCCCC(C)(C)O)C(=O)OC1C(OC)=CC23CCCN2CCc2cc4c(cc2C13)OCO4` (stereo not drawn) [Example 5e, bishomoharringtonine], for which the Activity entry in the series on cancer is recorded as “none”.
Turning to `COC(=O)C[C@](O)(CCC(C)C)C(=O)O[C@@H]1C(OC)=C[C@]23CCCN2CCc2cc4c(cc2[C@H]13)OCO4` [Example 5d, deoxyharringtonine], the Activity result with cancer is given as “anticancer”.
Regarding `COC(=O)C[C@@](O)(CCCC(C)(C)O)C(=O)O[C@@H]1C(OC)=C[C@]23CCCN2CCc2cc4c(cc2[C@H]13)OCO4.O=C(O)C[C@H](O)C(=O)O` [Example 3, HOMOHARRINGTONINE HYDROGEN (2S)-MALATE], the solubility in series [1] (25 °C) is over 60 mg/mL.
Consider `COC(=O)CC(O)(CC(C)(C)O)C(=O)OC1C(OC)=CC23CCCN2CCc2cc4c(cc2C13)OCO4` (stereo not drawn) [Example 5c, norharringtonine], for which the Activity entry in the series on cancer is listed as “none”.
